This note sets out measurements from patent publication US9546153B2, “Bicyclic heterocycle substituted pyridyl compounds useful as kinase modulators” (BRISTOL-MYERS SQUIBB COMPANY, priority 2012, dated 2017).

The target in assay [1] is IRAK4 (Homo sapiens (Human), UniProt Q9NWZ3). The experiment in a line: IRAK4 Inhibition Assay. Type of assay: biochemical. The following applies: ATP 500 μM; IRAK4 0.6 nM; 60 min at room temperature. On the procedure: The assays were performed in U-bottom 384-well plates. […] The reaction was initiated by the combination of IRAK4 with substrates and test compounds. The reaction was incubated at room temperature for 60 min. and terminated by adding 45 μL of 35 mM EDTA to each sample. The reaction mixture was analyzed on the Caliper LABCHIP® 3000 (Caliper, Hopkinton, Mass.) by electrophoretic separation of the fluorescent substrate and phosphorylated product.
Sequence of IRAK4 (Q9NWZ3 whole entry, species assumed): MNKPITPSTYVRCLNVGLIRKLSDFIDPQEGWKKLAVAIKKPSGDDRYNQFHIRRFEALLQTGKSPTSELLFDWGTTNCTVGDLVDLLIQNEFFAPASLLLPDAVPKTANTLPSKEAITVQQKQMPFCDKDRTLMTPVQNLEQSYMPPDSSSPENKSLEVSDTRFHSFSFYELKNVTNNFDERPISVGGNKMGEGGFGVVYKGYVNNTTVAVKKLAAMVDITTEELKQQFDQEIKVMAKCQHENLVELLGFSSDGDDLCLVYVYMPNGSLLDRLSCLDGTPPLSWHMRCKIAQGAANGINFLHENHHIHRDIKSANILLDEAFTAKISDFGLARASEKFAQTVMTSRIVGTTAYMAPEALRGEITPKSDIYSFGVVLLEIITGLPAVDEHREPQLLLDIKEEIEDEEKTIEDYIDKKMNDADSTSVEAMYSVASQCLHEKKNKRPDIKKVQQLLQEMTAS

The test system of assay [2] is TLR2 induced IL-6 in peripheral blood mononuclear cells (PBMCs). Kind of assay: PBMC TLR2 Induced IL-6 Assay. The format is cell-based, human. The following applies: human PBMCs, 10 μg/ml lipoteichoic acid for 5 hours, IL-6 by ELISA, value without asterisk, read-out: Cell IC50. An outline of the steps: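 IL-6 ELISA of supernatants after a 5 h challenge with the TLR2 agonist lipoteichoic acid (10 μg/ml). Before stimulation, human PBMCs (250000 cells/well; RPMI, 10% heat-inactivated FCS) received compound for 30 min at 37° C. Values given as IC50 or EC50.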

Where two headings read alike, the source gives them in different places.

For `CC(C)(O)[C@H](F)CNC(=O)c1cnc(Nc2ccc3ncsc3c2)cc1NC1CCOCC1F` (stereo partly drawn) [Example 231], the IC50 (as a rule, the concentration that gives 50% inhibition) was 3.4 nM in assay [1] and 88 nM in assay [2].
For `CC1COCCC1Nc1cc(Nc2ccc3ncsc3c2)ncc1C(=O)NC[C@@H](F)C(C)(C)O` (stereo partly drawn) [Example 232] the same measures were 35.7 nM and 697 nM.
For `CC1COCCC1Nc1cc(Nc2ccc3ncsc3c2)ncc1C(=O)NC[C@@H](F)C(C)(C)O` (stereo partly drawn) [Example 233] the same measures were 7.4 nM and 469 nM.
Regarding `CC(C)(O)[C@H](F)CNC(=O)c1cnc(Nc2ccc3ncsc3c2)cc1NC1COCCC1F` (stereo partly drawn) [Example 235], the 50% inhibitory concentration (IC50) came to 1.7 nM in assay [1] and 263 nM in assay [2] (Homo sapiens, PBMC, 5 h).
For `CC(C)(O)[C@H](F)CNC(=O)c1cnc(Nc2ccn3nccc3n2)cc1NC1CC1` [Example 236] the same measures were 4.7 nM and 346 nM.
For `CC(C)(O)[C@H](F)CNC(=O)c1cnc(Nc2ccn3nccc3n2)cc1NC1CCOCC1` [Example 237] the same measures were 3.1 nM and 222 nM.
Take `CC(C)Nc1cc(Nc2ccn3ncc(Cl)c3n2)ncc1C(=O)NC[C@@H](F)C(C)(C)O` [Example 243]: the 50% inhibitory concentration (IC50) in assay [1] was found to be 5.5 nM; in assay [2], 567 nM.
`CC(C)Nc1cc(Nc2ccn3ncc(F)c3n2)ncc1C(=O)NC[C@@H](F)C(C)(C)O` [Example 244]: the IC50 is 1.9 nM in assay [1] and 156 nM in assay [2] (Homo sapiens, PBMC, 5 h).
As for `CC(C)(O)[C@H](F)CNC(=O)c1cnc(Nc2ccn3nccc3n2)cc1NC1CCCC1F` (stereo partly drawn) [Example 245], the IC50 in assay [1] is 2.8 nM; in assay [2] (Homo sapiens, PBMC, 5 h), 390 nM.
Turning to `CC(C)(O)[C@H](F)CNC(=O)c1cnc(Nc2ccn3nccc3n2)cc1NC1CCCC1F` (stereo partly drawn) [Example 246], the IC50 in assay [1] came to 5.5 nM; in assay [2], 262 nM.
For `CC(C)(O)[C@H](F)CNC(=O)c1cnc(Nc2ccn3nccc3n2)cc1NC1CCC(F)C1` (stereo partly drawn) [Example 247] the same measures were 2.7 nM and 170 nM.
The matching figures for `CC(C)(O)[C@H](F)CNC(=O)c1cnc(Nc2ccn3nccc3n2)cc1NC1CCC(F)C1` (stereo partly drawn) [Example 248]: 3.1 nM and 176 nM.
As to `CC(C)(O)[C@H](F)CNC(=O)c1cnc(Nc2ccn3ncc(F)c3n2)cc1NC1CC1` [Example 251], the IC50 in assay [1] is 3.2 nM; in assay [2] (Homo sapiens, PBMC, 5 h), 369 nM.
For `CC(C)(O)[C@H](F)CNC(=O)c1cnc(Nc2ccn3ncc(F)c3n2)cc1NC1CCC1` [Example 252] the same measures were 4.2 nM and 173 nM.
For `CC(C)(F)CNc1cc(Nc2ccn3nccc3n2)ncc1C(=O)NC[C@@H](F)C(C)(C)O` [Example 253] the same measures were 5.2 nM and 308 nM.
On to `CC(C)(O)[C@H](F)CNC(=O)c1cnc(Nc2ccn3nccc3n2)cc1NC1CCC(F)C1` (stereo partly drawn) [Example 254], for which the concentration for half-maximal inhibition (IC50) in assay [1] amounted to 2.5 nM; in assay [2] it was 131 nM.
For `CC(C)(O)[C@H](F)CNC(=O)c1cnc(Nc2ccn3nccc3n2)cc1NC1CCC(F)C1` (stereo partly drawn) [Example 255] the same measures were 2.4 nM and 86 nM.
As to `CC(C)(O)[C@H](F)CNC(=O)c1cnc(Nc2ccn3nccc3n2)cc1NC1COCCC1F` (stereo partly drawn) [Example 256], the IC50 in assay [1] worked out at 8.8 nM; in assay [2] (Homo sapiens, PBMC, 5 h) it was 587 nM.
The matching figures for `CC(C)(F)CNc1cc(Nc2ccn3ncc(F)c3n2)ncc1C(=O)NC[C@@H](F)C(C)(C)O` [Example 257]: 3.1 nM and 321 nM.
The matching figures for `CC(C)Nc1cc(Nc2ccn3ncc(C#N)c3n2)ncc1C(=O)NC[C@@H](F)C(C)(C)O` [Example 261]: 3.6 nM and 126 nM.
For `CC(C)Nc1cc(Nc2ccn3ncc(Cl)c3n2)ncc1C(=O)NC[C@@H](F)C(C)(C)O` [Example 262], the concentration for half-maximal inhibition (IC50) came out at 2.9 nM in assay [1] and 141 nM in assay [2].
For `CC(C)(O)[C@H](F)CNC(=O)c1cnc(Nc2ccn3nccc3n2)cc1NC1CC(F)C1` (stereo partly drawn) [Example 263], the concentration for half-maximal inhibition (IC50) in assay [1] stood at 4.2 nM; in assay [2] (Homo sapiens, PBMC, 5 h), 190 nM.
For `CC(C)(F)CNc1cc(Nc2ccn3ncc(Cl)c3n2)ncc1C(=O)NC[C@@H](F)C(C)(C)O` [Example 264] the same measures were 4.6 nM and 384 nM.
The matching figures for `CC(C)(O)[C@H](F)CNC(=O)c1cnc(Nc2ccn3ncc(F)c3n2)cc1NC1CC(F)(F)C1` [Example 265]: 3.3 nM and 217 nM.
The matching figures for `Cc1cc2nc(Nc3cc(NC4CCC(F)C4)c(C(=O)NC[C@@H](F)C(C)(C)O)cn3)ccn2n1` (stereo partly drawn) [Example 267]: 7.4 nM and 468 nM.
Consider `Cc1cc2nc(Nc3cc(NC4CCC(F)C4)c(C(=O)NC[C@@H](F)C(C)(C)O)cn3)ccn2n1` (stereo partly drawn) [Example 268], for which the 50% inhibitory concentration (IC50) in assay [1] was determined as 6.1 nM; in assay [2], 376 nM.
Consider `CC(C)(O)[C@H](F)CNC(=O)c1cnc(Nc2ccc3nccn3n2)cc1NC1CCC1` [Example 272], for which the IC50 in assay [1] was 4.8 nM; in assay [2] (Homo sapiens, PBMC, 5 h), 175 nM.
For `CC(C)(O)[C@H](F)CNC(=O)c1cnc(Nc2ccc3nccn3n2)cc1NC1CCCC1F` (stereo partly drawn) [Example 273] the same measures were 2.4 nM and 764 nM.
For the molecule `CC(C)(O)[C@H](F)CNC(=O)c1cnc(Nc2ccc3nccn3n2)cc1NC1CCCC1F` (stereo partly drawn) [Example 274], the concentration for half-maximal inhibition (IC50) in assay [1] came out at 2.8 nM; in assay [2] it was 712 nM.
Turning to `CC(C)(C)CNc1cc(Nc2ccc3nccn3n2)ncc1C(=O)NC[C@@H](F)C(C)(C)O` [Example 275], the 50% inhibitory concentration (IC50) in assay [1] was 3.1 nM; in assay [2] (Homo sapiens, PBMC, 5 h) it was 335 nM.
In the case of `Cc1cnc2ccc(Nc3cc(NC(C)C)c(C(=O)NC[C@@H](F)C(C)(C)O)cn3)nn12` [Example 277], the IC50 in assay [1] worked out at 3.6 nM; in assay [2] (Homo sapiens, PBMC, 5 h), 180 nM.
For `Cc1cn2nc(Nc3cc(NC4CC4)c(C(=O)NC[C@@H](F)C(C)(C)O)cn3)ccc2n1` [Example 278] the same measures were 10.8 nM and 618 nM.
For `CC(C)(O)[C@H](F)CNC(=O)c1cnc(Nc2ccc3nccn3n2)cc1NC1CCOCC1` [Example 279] the same measures were 4 nM and 292 nM.
As to `CC(C)(O)[C@H](F)CNC(=O)c1cnc(Nc2ccc3nccn3n2)cc1NC1CCC(F)C1` (stereo partly drawn) [Example 280], the IC50 worked out at 2.7 nM in assay [1] and 127 nM in assay [2].
The matching figures for `CC(C)(O)[C@H](F)CNC(=O)c1cnc(Nc2ccc3nccn3n2)cc1NC1CCC(F)C1` (stereo partly drawn) [Example 281]: 1.2 nM and 354 nM.
Regarding `O=C(NC1CCC(O)CC1)c1cnc(Nc2ccc3nccn3n2)cc1NC1CCC1` (stereo not drawn) [Example 282], the concentration for half-maximal inhibition (IC50) was determined as 11.4 nM in assay [1] and 458 nM in assay [2] (Homo sapiens, PBMC, 5 h).
For `CC(C)(O)C(F)(F)CNC(=O)c1cnc(Nc2ccc3nccn3n2)cc1NC1CC1` [Example 283] the same measures were 9.6 nM and 417 nM.
The matching figures for `CC(C)(O)[C@H](F)CNC(=O)c1cnc(Nc2ccc3nccn3n2)cc1NC1CCOCC1F` (stereo partly drawn) [Example 285]: 7.1 nM and 512 nM.
The matching figures for `CC(C)Nc1cc(Nc2ccn3nccc3c2)ncc1C(=O)NC[C@@H](F)C(C)(C)O` [Example 286]: 5.2 nM and 415 nM.
Take `CC(C)(O)[C@H](F)CNC(=O)c1cnc(Nc2ccn3nccc3c2)cc1NC1CCC(F)C1` (stereo partly drawn) [Example 287]: the IC50 was 6.2 nM in assay [1] and 674 nM in assay [2] (Homo sapiens, PBMC, 5 h).
Regarding `CC(C)Nc1cc(Nc2ccn3ncc(F)c3c2)ncc1C(=O)NC[C@@H](F)C(C)(C)O` [Example 288], the IC50 in assay [1] turned out to be 1 nM; in assay [2] (Homo sapiens, PBMC, 5 h) it was 134 nM.
For `CC(C)CNc1cc(Nc2ccn3nccc3c2)ncc1C(=O)NC[C@@H](F)C(C)(C)O` [Example 289] the same measures were 6.1 nM and 502 nM.
The matching figures for `CC(C)(O)[C@H](F)CNC(=O)c1cnc(Nc2ccn3nccc3c2)cc1NCC1CC1` [Example 290]: 11.4 nM and 607 nM.
For `CC(C)(C)Nc1cc(Nc2ccn3nccc3c2)ncc1C(=O)NC[C@@H](F)C(C)(C)O` [Example 291] the same measures were 7 nM and 283 nM.
Take `CC(C)(O)[C@H](F)CNC(=O)c1cnc(Nc2ccn3nccc3c2)cc1NCCC1CC1` [Example 292]: the IC50 worked out at 7 nM in assay [1] and 427 nM in assay [2] (Homo sapiens, PBMC, 5 h).
The matching figures for `CC(C)(O)[C@H](F)CNC(=O)c1cnc(Nc2ccn3nccc3c2)cc1NC1CCC(F)(F)C1` (stereo partly drawn) [Example 293]: 1.8 nM and 310 nM.
The matching figures for `CC(C)(F)CNc1cc(Nc2ccn3nccc3c2)ncc1C(=O)NC[C@@H](F)C(C)(C)O` [Example 294]: 4.7 nM and 416 nM.
In the case of `CC(C)Nc1cc(Nc2ccn3ncc(Cl)c3c2)ncc1C(=O)NC[C@@H](F)C(C)(C)O` [Example 295], the IC50 in assay [1] amounted to 4.8 nM; in assay [2] (Homo sapiens, PBMC, 5 h), 446 nM.
`CC(C)(O)[C@H](F)CNC(=O)c1cnc(Nc2ccn3nccc3c2)cc1NC1CC(F)C1` (stereo partly drawn) [Example 296]: the half-inhibitory concentration (IC50) is 7.1 nM in assay [1] and 384 nM in assay [2] (Homo sapiens, PBMC, 5 h).
For `CC(C)(O)[C@H](F)CNC(=O)c1cnc(Nc2ccn3nccc3c2)cc1NC1CCCC1(F)F` (stereo partly drawn) [Example 297] the same measures were 5.7 nM and 535 nM.
For `CC(C)(O)[C@H](F)CNC(=O)c1cnc(Nc2ccn3nccc3c2)cc1NC1CCOCC1F` (stereo partly drawn) [Example 298] the same measures were 7.9 nM and 596 nM.
